Format in all cases: cell-based
Assay [1] relates to HEC59. Briefly: CellTiter-GLO (CTG) assay, combinatorial matrix. The settings on record: 30 μM to 15 nM IMT + 30 μM to 40 nM BAY-876.
Assay [2] relates to A2780. Briefly: SRB assay, IMT combined with inhibitor. The settings on record: A2780; dilution series of the IMT + MEK inhibitor Selumetinib (AZD6244) at constant 1 μM or 31 nM; compared to untreated or MEK inhibitor only (FIG. 1). Here is the method: In two studies, the ovarian cell line A2780 was tested for 72 hours with the IMT N,N-dimethyl-2-[4-(o-tolyl)-2-oxo-chromen-7-yl]oxy-propanamide (30 μM-15 nM) and the MEK inhibitor Selumetinib (30 μM-10 nM), or with the IMT 1-[2-[4-(2-chlorophenyl)-2-oxo-chromen-7-yl]oxypropanoyl]piperidine-3-sulfonamide (30 μM-15 nM) and the MEK inhibitor PD318088 (30 μM-10 nM).
Solforhodamine B assay is carried out as described in Voigt W. (2005) Sulforhodamine B Assay and Chemosensitivity. (Methods in Molecular Medicine™, vol 110. Humana Press. https://doi.org/10.1385/1-59259-869-2:039).
The determination of changes in cellular biomass was based on the Solforhodamine B assay format, carried out as described in Voigt W. (2005) Sulforhodamine B Assay and Chemosensitivity. (Methods in Molecular Medicine™, vol 110. Humana Press. https://doi.org/10.1385/1-59259-869-2:039).
(§1) All in vitro cell culture experiments were carried out under near physiological glucose concentrations (5 mM) in at least two independent replicates.
First, 30 different cell lines from 14 different tissue types were tested in the SRB assay format. The cells were examined individually for changes in growth over a period of 120 hours with dilution series of both inhibitors. Untreated cells were used as a negative control group. Subsequently, a dilution series of the respective MAPK signalling pathway SOCs was treated in combination with a fixed concentration of 40 nM (3S)-1-[(2R)-2-[4-(2-chloro-4-fluoro-phenyl)-2-oxo-chromen-7-yl]oxypropanoyl]piperidine-3-carboxylic acid.

The subject of assay [3] is A2780. Briefly: CellTiter-GLO (CTG) assay, combinatorial matrix. The settings on record: for Measured residual activity (cellular ATP content): A2780, 72 hours, untreated control =100%. The method, then: (§2) To determine the in vitro cellular viability, cellular ATP concentrations were measured using a luminescence-based homogenous assay format, as described here. […] Optimal cell density for each cell line was determined to guarantee linearity. For viability assays with compounds, cells were then seeded at a density of 200 to 1000 per well in 25 μl in 384-well plates (Greiner Bio-One, Frickenhausen, Germany). After overnight incubation at 37° C./5% CO2, 25 nl or 75 nl compounds were added to each sample well by using BIOMEK FXP Laboratory Automation Workstation (Beckman Coulter, USA). Wells with cells and 0.1% or 0.3% DMSO in culture medium were used as positive controls, wells with cells and 10 μM staurosporine (Selleck Chemicals, Huston, USA) in culture medium were used as negative controls. Upon incubation with compounds for 72 h at 37° C./5% CO2 25 μl Cell Titer Glo reagent (Promega, Madison, USA, European Pat. No. 1131441, U.S. Pat. Nos. 7,083,911, 7,452,663 and 7,732,128) 1:2 diluted with cell culture medium) was added to each well to determine cell viability. 384well-plates were placed for 2 min on an orbital microplate shaker and incubated for further 10 min at room temperature resulting in a stabilization of light signal. Luminescence was measured by Envision Plate Reader (Perkin Elmer, USA).
as §1

Assay [4] concerns HEC59. Briefly: CellTiter-GLO (CTG) assay, combinatorial matrix. The settings on record: HEC59, 72 hours, BAY-876 0 (IMT alone), IMT at the μM of c0, untreated control =100%. Here is the method: as §2, §1
(§3) To establish the method described, N,N-dimethyl-2-[4-(o-tolyl)-2-oxo-chromen-7-yl]oxy-propanamide, (3S)-1-[2-[4-(2-chloro-4-fluoro-phenyl)-2-oxo-chromen-7-yl]oxypropanoyl]piperidine-3-carboxylic acid, (3S)-1-[(2R)-2-[4-(2-chloro-4-fluoro-phenyl)-2-oxo-chromen-7-yl]oxypropanoyl]piperidine-3-carboxylic acid and BAY-876 were first examined with regard to their effect on the cell growth of twelve different tumour cell lines and the IC50 values were determined. This initial study was followed by validation experiments in a matrix format and in the CTG assay, as described under Example 1), in two tumour cell lines from uterine and ovarian carcinoma (HEC59 and A2780), as well as in primary human blood cells (PBMC) (Table 7).
(§4) Combinations of one concentration of IMT (μM; y-axis) and 30 μM-33 nM BAY-876 (x-axis) were incubated for 72 hours with HEC59, hPBMCs or A2780 and then the cellular ATP-content was determined using the CellTiter-GLO assay format. A: Measured residual activity (%) based on an untreated control group (=100%). B: The combinatorial indices are provided, based on the reference groups treated with the corresponding concentration of only one inhibitor class, according to Berenbaum and Cou & Talalay. <1=synergism, 1-2=additivity, 2>=antagonism.

The subject of assay [5] is primary human blood cells (PBMC). Briefly: CellTiter-GLO (CTG) assay, combinatorial matrix. The settings on record: hPBMCs, 72 hours, BAY-876 0 (IMT alone), IMT at the μM of c0, untreated control =100%. Here is the method:
as §2, §1, §3, §4

For `CC(Oc1ccc2c(-c3ccc(F)cc3Cl)cc(=O)oc2c1)C(=O)N1CCC[C@H](C(=O)O)C1` (stereo partly drawn) [(3S)-1-[2-[4-(2-chloro-4-fluoro-phenyl)-2-oxo-chromen-7-yl]oxypropanoyl]piperidine-3-carboxylic acid], the “combination of IMT and GLUTi compared to treatment with only the GLUTi BAY-876 alone” value was “advantage of the combination” in the assay with HEC59 [1] and “advantage of the combination” with A2780 [3] (A2780, CTG matrix, 30 μM to 15 nM IMT + 30 μM to 40 nM BAY-876). The “growth kinetics in the SRB assay format” value in the assay with A2780 [2] was “advantage of the combination treatment”.
For `C[C@@H](Oc1ccc2c(-c3ccc(F)cc3Cl)cc(=O)oc2c1)C(=O)N1CCC[C@H](C(=O)O)C1` [IMT], the “Measured residual activity (cellular ATP content)” value is listed as 35% in the assay with A2780 [3] (BAY-876 0 (IMT alone), IMT at the μM of c0, IMT 0.12 µM); 32% with A2780 [3] (BAY-876 0 (IMT alone), IMT at the μM of c0, IMT 0.47 µM); 29% in the assay on A2780 [3] (BAY-876 0 (IMT alone), IMT at the μM of c0, IMT 1.88 µM); 30% in the assay with A2780 [3] (Olaparib 0 (IMT alone), IMT (3S)-1-[(2R)-2-[4-(2-chloro-4-fluoro-phenyl)-2-oxo-chromen-7-yl]oxypropanoyl]piperidine-3-carboxylic acid at the μM of c0); 25% in the assay on A2780 [3] (Rucaparib 0 (IMT alone), IMT (3S)-1-[(2R)-2-[4-(2-chloro-4-fluoro-phenyl)-2-oxo-chromen-7-yl]oxypropanoyl]piperidine-3-carboxylic acid at the μM of c0); 29% with A2780 [3] (Veliparib 0 (IMT alone), IMT (3S)-1-[(2R)-2-[4-(2-chloro-4-fluoro-phenyl)-2-oxo-chromen-7-yl]oxypropanoyl]piperidine-3-carboxylic acid at the μM of c0, IMT 0.2 µM). Besides, the “Measured residual activity (cellular ATP content)” value in the assay on A2780 [3] (Veliparib 0 (IMT alone), IMT (3S)-1-[(2R)-2-[4-(2-chloro-4-fluoro-phenyl)-2-oxo-chromen-7-yl]oxypropanoyl]piperidine-3-carboxylic acid at the μM of c0, IMT 7.5 µM) is on record as 31%; in the assay with HEC59 [4] (IMT 0.005 µM) it was 99%; in the assay with HEC59 [4] (IMT 1.25 µM), 39%; in assay [5] (IMT 0.059 µM), 98%; in assay [5] (IMT 0.234 µM), 94%.
